Drawing on US10806726B2, “Methods of using indazole-3-carb oxamides and their use as Wnt/B-catenin signaling pathway inhibitors” (Samumed, LLC, priority 2016, dated 2020), this text covers EC50 for one molecule.

What all share (assay type): cell-based
For assay [1], the system named is Wnt responsive promoter linked to luciferase gene in SW480 cells. Put plainly: Wnt Reporter Assay, SW480, 48 hours (Example 10). Particulars: Homo sapiens, 10-0.0003 μM, read-out: EC50, inhibition of Wnt pathway activity. On the procedure:
SW480 cells (ATCC) were cultured in Dulbecco's modified Eagle's medium (DMEM, ThermoFisher) with 1% Glutamax (Life Technologies), 1% Penicillin-Streptomycin (Life Technologies), 150 ug/ml Hygromycin (Life Technologies) with 10% fetal bovine serum (FBS) (Hyclone) at 37° C., 5% CO2.
Wnt Reporter Assay. Human colorectal cancer cell line SW480, stably expressing the Wnt responsive promoter linked to luciferase gene, was plated overnight at 4×10e^4 cells/well in DMEM, high glucose, no glutamine, no phenol red (Life Technologies), 1% Glutamax (Life Technologies), 1% Sodium Pyruvate (Life Technologies), 1% Penicillin-Streptomycin (Life Technologies) with 1% Fetal Bovine Serum (Hyclone). Cells were then treated with DMSO (vehicle control) or COMPOUND 175 at 10 μM top concentration and half a log dilution up to 10 concentrations (10, 3, 1, 0.3, 0.1, 0.03, 0.01, 0.003, 0.001 and 0.0003 μM). Cells were incubated for 48 hours at 37° C. 15 μl of Bright-Glo (Bright-Glo™ Luciferase Assay System, Promega) was added to the cells and luminescence was measured using the Cytation 3 plate reader (Biotek). Data was normalized using the DMSO control and inhibition profile and EC50 was calculated using Prism 4 (GraphPad Software Inc, La Jolla, Calif., USA). Prism 4.0 was used to calculate the EC50 of the Wnt reporter inhibition assay.

For assay [2], the system named is Wnt-responsive promoter driving firefly luciferase in SW480 cells. The assay can be described thus: Wnt reporter (SP5 promoter-luciferase) screening assay in SW480 cells. The conditions noted are these: Homo sapiens, 24-40 h, top concentration ten micromolar. In outline: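 SW480 (APC-mutant colon) cells stably transduced with lentiviral SP5-promoter (eight TCF/LEF sites) firefly luciferase, ~10,000 cells/well. Signals normalized to DMSO controls for EC50 fitting.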

Assay [3] deals with primary human mesenchymal stem cells (hMSCs). The assay can be described thus: Tenocyte Differentiation Assay, hMSCs, 7 days (Example 11). The conditions noted are these: 168 h, 750-5.8 nM, read-out: EC50, induction of SCXA, TenacinC and Tenomodulin expression. On the procedure: Primary human mesenchymal stem cells (hMSCs; Lonza Inc) were cultured in MSCGM™ Mesenchymal Stem Cell Growth Medium, with 10% FBS (Lonza) 10% fetal bovine serum (FBS) (Hyclone) at 37° C., 5% CO2. hMSCs were used between passage 2 and 6 and were never allowed to reach confluence to maintain a naive state.
Tenocyte Differentiation Assay. For tenocyte differentiation, hMSCs were plated in 384-well plates at 1×10^4 cells/well in Dulbecco's modified Eagle's medium (DMEM, ThermoFisher) with 1% fetal bovine serum (FBS) (Hyclone). Cells were then treated with DMSO (vehicle control) or compound 175 at 750 nM top concentration and 2-fold dilution up to 8 concentrations ([…], 166.6, 83.3, 41.7, 21.7, 10.8 and 5.8 nM) and incubated for 7 days at 37° C. A combination of BMP and FGF ([…], Peprotech, Inc.) was used as a positive control. […] Plates were imaged using a CX5 high-content imager (ThermoFisher) and the % of cells stained positive were determined using a cell scoring algorithm (ThermoFisher). Data was plotted and EC50 was calculated using Prism 5 (GraphPad Software Inc, La Jolla, Calif., USA). […]

As for `COc1ccc(NC(=O)c2n[nH]c3ccc(-c4cncc(CN5CCCCC5)c4)cc23)cn1` [compound 175, N-(6-Methoxypyridin-3-yl)-5-(5-(piperidin-1-ylmethyl)pyridin-3-yl)-1H-indazole-3-carboxamide], the values for the EC50 in assay [1], in assay [2] and in assay [3] were 153 nM, 25 nM and 139 to 189 nM, respectively.
